Reference: paper PMC3914206

How the values were obtained:
Assay type in all cases: binding
[1] = target: T1, panel of 442 kinases (Homo sapiens, UniProt P10721, L576P); conditions: Compound Concentration 10 µM
T1 construct: purchased KINOMEscan
From the text: (§1) We assessed the selectivity of members of this scaffold using the KINOMEscan methodology across a near comprehensive panel of 442 kinases [[18,27]].

[2] = target: T2, panel of 442 kinases (Homo sapiens, UniProt Q96RR4); conditions: Compound Concentration 10 µM
T2 construct: purchased KINOMEscan
T2 sequence (Q96RR4 whole entry): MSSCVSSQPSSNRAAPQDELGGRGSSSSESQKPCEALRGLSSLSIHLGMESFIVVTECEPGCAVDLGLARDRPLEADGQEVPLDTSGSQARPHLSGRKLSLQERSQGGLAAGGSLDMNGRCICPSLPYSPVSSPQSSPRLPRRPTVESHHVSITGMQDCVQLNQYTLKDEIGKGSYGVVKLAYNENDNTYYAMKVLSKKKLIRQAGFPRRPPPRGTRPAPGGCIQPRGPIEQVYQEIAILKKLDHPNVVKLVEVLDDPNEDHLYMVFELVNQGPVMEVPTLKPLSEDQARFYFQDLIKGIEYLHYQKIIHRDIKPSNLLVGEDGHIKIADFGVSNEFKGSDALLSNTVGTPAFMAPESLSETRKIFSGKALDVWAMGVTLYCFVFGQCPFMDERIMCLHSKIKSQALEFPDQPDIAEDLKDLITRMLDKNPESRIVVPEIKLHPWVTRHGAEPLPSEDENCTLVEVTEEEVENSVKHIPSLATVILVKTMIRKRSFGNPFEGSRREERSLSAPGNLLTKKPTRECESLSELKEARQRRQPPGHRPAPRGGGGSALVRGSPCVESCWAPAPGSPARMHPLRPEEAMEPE
From the text: as §1

[3] = target: T3, panel of 442 kinases (Homo sapiens, UniProt Q9H2G2); conditions: kinase SLK; compound concentration 10 µM
T3 construct: purchased KINOMEscan
T3 sequence (Q9H2G2 whole entry): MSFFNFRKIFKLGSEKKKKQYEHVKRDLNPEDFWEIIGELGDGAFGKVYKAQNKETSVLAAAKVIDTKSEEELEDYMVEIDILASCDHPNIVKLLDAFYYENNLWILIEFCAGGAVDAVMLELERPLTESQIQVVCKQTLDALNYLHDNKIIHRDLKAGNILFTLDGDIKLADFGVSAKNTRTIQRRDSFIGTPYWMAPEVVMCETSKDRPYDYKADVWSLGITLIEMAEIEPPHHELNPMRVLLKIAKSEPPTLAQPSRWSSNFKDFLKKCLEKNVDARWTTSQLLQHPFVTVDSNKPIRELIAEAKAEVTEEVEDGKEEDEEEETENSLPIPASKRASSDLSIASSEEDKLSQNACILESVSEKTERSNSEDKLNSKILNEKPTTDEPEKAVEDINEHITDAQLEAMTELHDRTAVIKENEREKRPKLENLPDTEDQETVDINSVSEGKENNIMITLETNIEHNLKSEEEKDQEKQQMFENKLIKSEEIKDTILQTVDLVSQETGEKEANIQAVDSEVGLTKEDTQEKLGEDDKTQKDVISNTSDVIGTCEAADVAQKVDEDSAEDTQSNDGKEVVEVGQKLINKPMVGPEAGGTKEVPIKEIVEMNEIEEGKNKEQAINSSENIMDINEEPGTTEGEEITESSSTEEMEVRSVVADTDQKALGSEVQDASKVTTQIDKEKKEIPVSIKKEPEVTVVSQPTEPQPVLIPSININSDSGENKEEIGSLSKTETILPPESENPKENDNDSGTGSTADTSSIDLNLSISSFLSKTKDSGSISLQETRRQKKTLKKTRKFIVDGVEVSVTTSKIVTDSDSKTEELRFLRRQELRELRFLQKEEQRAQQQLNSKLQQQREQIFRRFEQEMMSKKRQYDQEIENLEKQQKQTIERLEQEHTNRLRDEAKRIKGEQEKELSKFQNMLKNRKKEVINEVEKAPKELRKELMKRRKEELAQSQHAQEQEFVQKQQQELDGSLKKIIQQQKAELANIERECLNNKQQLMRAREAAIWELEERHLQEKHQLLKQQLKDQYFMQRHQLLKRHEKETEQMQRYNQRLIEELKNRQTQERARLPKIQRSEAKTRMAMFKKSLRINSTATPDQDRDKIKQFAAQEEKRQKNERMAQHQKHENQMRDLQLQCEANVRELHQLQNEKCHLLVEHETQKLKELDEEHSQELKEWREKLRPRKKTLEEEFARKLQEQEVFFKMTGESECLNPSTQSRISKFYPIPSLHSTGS
From the text: as §1

T1 sequence (P10721 26-976 L576P): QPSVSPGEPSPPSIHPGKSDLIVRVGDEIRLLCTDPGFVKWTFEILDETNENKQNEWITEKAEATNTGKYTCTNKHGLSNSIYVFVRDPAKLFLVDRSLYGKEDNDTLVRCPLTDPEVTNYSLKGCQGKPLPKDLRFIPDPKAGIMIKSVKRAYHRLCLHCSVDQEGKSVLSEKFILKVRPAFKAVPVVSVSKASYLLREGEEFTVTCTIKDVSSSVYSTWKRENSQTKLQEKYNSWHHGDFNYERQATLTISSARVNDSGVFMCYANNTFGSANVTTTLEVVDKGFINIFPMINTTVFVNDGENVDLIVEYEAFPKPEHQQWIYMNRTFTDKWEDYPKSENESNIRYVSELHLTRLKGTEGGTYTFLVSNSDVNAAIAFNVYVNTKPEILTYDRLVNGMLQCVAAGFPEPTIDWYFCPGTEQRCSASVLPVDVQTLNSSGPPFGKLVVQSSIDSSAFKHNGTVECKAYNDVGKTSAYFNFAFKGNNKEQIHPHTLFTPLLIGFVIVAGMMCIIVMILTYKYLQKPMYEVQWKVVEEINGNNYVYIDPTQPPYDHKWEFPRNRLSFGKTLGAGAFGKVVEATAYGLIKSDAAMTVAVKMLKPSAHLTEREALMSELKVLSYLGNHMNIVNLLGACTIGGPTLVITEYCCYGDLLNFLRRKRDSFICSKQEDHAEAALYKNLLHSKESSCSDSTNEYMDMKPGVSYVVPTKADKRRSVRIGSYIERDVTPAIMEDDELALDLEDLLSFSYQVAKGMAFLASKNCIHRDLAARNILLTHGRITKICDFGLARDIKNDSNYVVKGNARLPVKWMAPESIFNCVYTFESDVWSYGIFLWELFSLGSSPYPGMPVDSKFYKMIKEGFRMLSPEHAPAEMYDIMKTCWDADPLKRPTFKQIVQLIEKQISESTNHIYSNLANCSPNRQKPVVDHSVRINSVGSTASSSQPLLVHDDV

| SMILES | KINOMEscan: KIT(L576P) [1] | KINOMEscan: CAMKK2 [2] | % Ctrl, SLK [3] [% Ctrl] |
| --- | --- | --- | --- |
| COc1cc(C(=O)N2CCC(N3CCN(C)CC3)CC2)ccc1Nc1ncc2c(n1)N(C)c1ccccc1C(=O)N2C [15 (LRRK2-IN-1)] | 100 | 31 | 100 |
| COc1cc(C(=O)N2CCC(N3CCN(C)CC3)CC2)ccc1Nc1ncc2c(n1)N1CCc3cccc(c31)C(=O)N2C [Compound 24] |  | 52 | 49 |
| COc1cc(C(=O)N2CCC(N3CCN(C)CC3)CC2)ccc1Nc1ncc2c(n1)N(C1CCCC1)c1ccccc1C(=O)N2C [Compound 25, 11-cyclopentyl-2-((2-methoxy-4-(4-(4-methylpiperazin-1-yl)piperidine-1-carbonyl)phenyl)amino)-5-methyl-5H-benzo[e]pyrimido[5,4-b][1,4]diazepin-6(11H)-one] | 93 | 78 | 100 |
| CCOc1cc(C(=O)N2CCC(N3CCN(C)CC3)CC2)ccc1Nc1ncc2c(n1)N(C1CCCC1)c1ccccc1C(=O)N2C [Compound 26] | 100 | 100 | 100 |
